{"source": "PubChem BioAssay AID1438", "about": "(Sanford-Burnham Center for Chemical Genomics, 2008)", "molecular_target": "Runt-related transcription factor 1 (Homo sapiens) + Core-binding factor subunit beta (Homo sapiens) (UniProt Q01196+Q13951)", "sequence (Q01196 whole entry, looked up, the tested form may be a part)": "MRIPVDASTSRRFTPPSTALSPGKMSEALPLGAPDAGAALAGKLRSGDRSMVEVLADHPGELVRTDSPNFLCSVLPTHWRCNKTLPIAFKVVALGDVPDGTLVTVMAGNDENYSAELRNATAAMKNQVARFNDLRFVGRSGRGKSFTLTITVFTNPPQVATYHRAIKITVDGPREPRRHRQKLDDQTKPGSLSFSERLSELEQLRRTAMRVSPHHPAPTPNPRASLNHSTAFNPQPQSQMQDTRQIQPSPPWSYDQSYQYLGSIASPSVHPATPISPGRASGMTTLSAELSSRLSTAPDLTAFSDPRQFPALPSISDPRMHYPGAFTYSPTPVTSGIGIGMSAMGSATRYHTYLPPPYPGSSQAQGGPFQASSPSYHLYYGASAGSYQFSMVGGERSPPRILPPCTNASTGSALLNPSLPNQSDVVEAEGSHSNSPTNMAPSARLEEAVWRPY", "sequence (Q13951 whole entry, looked up, the tested form may be a part)": "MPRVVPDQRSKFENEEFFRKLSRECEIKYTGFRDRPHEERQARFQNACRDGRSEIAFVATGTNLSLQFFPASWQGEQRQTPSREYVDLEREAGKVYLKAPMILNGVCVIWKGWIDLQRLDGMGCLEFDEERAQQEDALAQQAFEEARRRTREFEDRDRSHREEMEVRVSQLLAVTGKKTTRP", "assay": "inhibitors of RUNX1 Runt–CBFb-SMMHC binding, biochemical, TR-FRET (AID 1438)", "conditions": "TR-FRET Runt domain–CBFb-SMMHC binding", "data": [{"smiles": "CN1CCc2cccc3c2[C@@H]1Cc1ccc(O)c(O)c1-3", "values": [{"measurement": "IC50", "result": 7.12, "unit": "µM"}]}]}
